Data taken from US20230257351A1, “SUBSTITUTED N-[…] HAVING P2X4 RECEPTOR ANTAGONISTIC ACTIVITY” (Bayer Aktiengesellschaft, priority 2020, published 2023).

Experiments:
[1] = test system: intraplantar Complete Freund's Adjuvant (CFA)-induced acute inflammatory pain; experiment: CFA Inflammation Model in Rats with Pain Behaviour Read Out; assay type: in vivo, male Sprague Dawley rats; details: for PWT 2 hour-post drug: mean PWT
Experimental: Compound was tested in the model of intraplantar Complete Freund's Adjuvant (CFA)-induced acute (48-hours setting) inflammatory pain in male Sprague Dawley rats. Briefly, 25 μl of CFA at 1 mg/ml was injected into the plantar surface of one hind paw. Mechanical hyperalgesia was measured using the Pressure Application Measurement apparatus (Ugo Basile, Gemonio, Italy). A linearly increasing pressure was applied to an area of approximately 50 mm^2 of the plantar side of the hind paw until a behavioural response (paw withdrawal) was observed or until the pressure reached 1000 grams of force (gf). The pressure at which the behavioural response occurred was recorded as the “Paw Withdrawal Threshold” (PWT). Both CFA-injected and contralateral PWTs were determined for each rat, in each treatment group and at each time point of the studies. The measurements were performed blinded. […] Compound or vehicle (10% DMSO, 40% Solutol, 50% water for injection, vol/vol) were dosed via oral route (p.o.) once daily (QD) or twice daily (BID) during 3 days, starting before CFA injection. Data were expressed as the mean PWT for each treatment group and at each time point. PWT data were analysed by performing a two way ANOVA with repeated measures (time×treatment). Planned comparison of means (each versus vehicle) was performed by using a Dunnett's post hoc test, provided that a main effect was detected. For p values less than 0.05, the results were deemed to be statistically significant.

[2] = test system: neuropathic mechanical allodynia induced by CCI surgery; experiment: Chronic Constriction Injury (CCI) Neuropathic Pain Model in Rats with Pain Behavior Read Out; assay type: in vivo, male Sprague-Dawley rats; details: rat CCI, von Frey, BID p.o. days 0 through 9
Experimental: Aim of the study was to test the efficacy of example 68 at ameliorating neuropathic mechanical allodynia. Male Sprague-Dawley rats were subject to chronic constriction injury of the sciatic nerve to induce neuropathic pain. Of those rats, 10 per group were assigned to treatment conditions involving BID drug administration for 10 days and behavioral assessment of mechanical sensitivity for allodynia with von Frey testing (vF). Behavior was assessed pre- and postdosing on Days 0, 2, 5, and 9. Rats were treated with Vehicle or test article BID on days 0 through 9, and rats in the gabapentin treatment group received gabapentin SID on days 0, 2, 5, and 9 in conjunction with behavioral assessment.
As vehicle Solutol/DMSO/WFI (40/10/50) was employed. Application volume for the per oral administration was 10 ml/kg.
Neuropathy was induced in male Sprague-Dawley rats by tying four loose ligatures of chromic gut around the common sciatic nerve in deeply anesthetized rats like described in Bennett, G. J., and Y. K. Xie. “A Peripheral Mononeuropathy in Rat That Produces Disorders of Pain Sensation like Those Seen in Man.” Pain 33 (1988): 87-107.
Mechanical allodynia was measured using 8 Semmes-Weinstein filaments (Stoelting©; Wood Dale, Ill., USA) with varying stiffness (0.4, 0.6, 1.0, 2.0, 4.0, 6.0, 8.0, and 15 g) according to the up-down method1. Animals were placed in individual acrylic chambers on a metal mesh surface and allowed to acclimate to their surroundings for a minimum of 15 minutes before testing. Each filament was presented perpendicular to the plantar surface with sufficient force to cause slight buckling against the paw and held for approximately 6 seconds or until a positive response is noted (paw sharply withdrawn).
Testing was initiated with the 2.0 g filament. In the absence of a paw withdrawal response, the next stronger stimulus was presented. In the event of paw withdrawal, the next weaker stimulus was used. […]
The 50% response threshold is calculated using the formula: […]

## CC(=O)N(c1ccc(F)c(F)c1)c1cc(NC(=O)Cc2ccc(F)cc2Cl)ccn1 [Example 68, N-{4-[2-(2-chloro-4-fluorophenyl)acetamido]pyridin-2-yl}-N-(3,4-difluorophenyl)acetamide]
[1]; rat CFA, 10 mg/kg BID p.o. during 3 days
  PWT 2 hour-post drug: 630 gf
[1]; rat CFA, 30 mg/kg BID p.o. during 3 days
  PWT 2 hour-post drug: 648 gf
[1]; rat CFA, 100 mg/kg BID p.o. during 3 days
  PWT 2 hour-post drug: 759 gf
[1]; rat CFA, 10, 30 and 100 mg/kg doses BID, 2 hours after last administration
  pain after treatment: significantly reduced pain
[1]; rat, oral administration BID during 3 days
  development of inflammatory pain after the injection of CFA: prevented the development of inflammatory pain
[2]
  mechanical allodynia induced by CCI surgery: decreased mechanical allodynia
[2]; 30 and 100 mg/kg (FIG. 1)
  50% paw withdrawal threshold: increased 50% paw withdrawal threshold significantly
